The values below come from patent publication US20140235729A1, “BENZYLAMINE CONTAINING COMPOSITIONS AND METHODS FOR APPETITE SUPPRESSION” (Zija International, Inc., priority 2013, published 2014).

Series [1] concerns appetite. Nature of the series: appetite suppression after oral consumption by a subject. To be noted: consumed orally by a subject; 'results have shown'; listed as Moringine. The format is in vivo. The protocol:
Generally speaking, most parts of the Moringa Oleifera tree are edible, with the leaves and seeds often being associated with most of the above-mentioned nutritional and health benefits.
However, the medium lethal dose (LD50) of benzylamine in subjects is understood to be about 600 milligrams (mg) per kilogram (kg) (i.e., 600 mg/kg). […] However, in accordance with the novel appetite suppression compositions and methods described herein, an effective amount of benzylamine that is far below the LD50 can be orally administered to adult humans for appetite suppression.

The conditions of series [2]: in subjects; 'understood to be'; cited from earlier work.
The conditions of series [3]: 'thought to be' / 'believed to be'; cited from earlier work.

For the compound `NCc1ccccc1` [benzylamine], the appetite suppression entry in series [1] is on record as “can suppress a subject's appetite”. The “medium lethal dose (LD50)” value in series [2] is on record as “about 600 mg/kg”. Further, the in vivo half-life in series [3] is 15 to 30 min.
